This experiment has as its target T1, hGLP-1R (Homo sapiens, UniProt P43220).
T1 construct: expressed in transfected cells; host or cells: CHO-K1
Nature of the experiment: Measurement of activity of GLP-1R agonist (cell-based luciferase assay), CHO-K1/hGLP-1R/CRE-luciferase cell line. The note with it: GLP-1R activity; CHO-K1/hGLP-1R/CRE-luciferase cells, 9 concentrations, four hours of incubation, Bright-Glo luminescence. Here is the method:
15,000 cells of a CHO-K1/hGLP-1R/CRE-luciferase cell line were seeded in a 96-well plate. A medium used herein was Ham’s F-12 Nutrient medium. The cells were incubated for 18 hours in a 5% CO2 incubator which was maintained at 37° C., and then treated with drugs. Each drug dispensed at 9 different concentrations was dissolved in a DMEM/F-12 + 1% FBS medium, and the cell line was treated with each of 100 µl thereof. After four hours of incubation, a Bright-Glo® luciferase assay system kit was used to add 30 µl of an assay reagent per well. A plate was stored at room temperature for 15 minutes, and then luminescence was measured using a SpectraMax M5 reader.

T1 sequence (P43220 24-463): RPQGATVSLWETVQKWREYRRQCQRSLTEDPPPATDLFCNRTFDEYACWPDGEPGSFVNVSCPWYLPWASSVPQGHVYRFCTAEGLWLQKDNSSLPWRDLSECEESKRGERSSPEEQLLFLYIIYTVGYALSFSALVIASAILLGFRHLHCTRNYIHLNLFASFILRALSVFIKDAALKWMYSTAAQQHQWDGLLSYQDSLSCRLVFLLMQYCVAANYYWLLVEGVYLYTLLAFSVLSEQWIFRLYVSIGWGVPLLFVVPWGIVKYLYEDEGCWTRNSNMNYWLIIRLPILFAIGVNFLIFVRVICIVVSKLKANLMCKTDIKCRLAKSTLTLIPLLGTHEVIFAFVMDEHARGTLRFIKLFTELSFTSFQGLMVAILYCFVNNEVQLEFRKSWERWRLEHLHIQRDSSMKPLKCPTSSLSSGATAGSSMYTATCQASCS

On to `O=C(O)c1ccc2nc(Cc3ccc(-c4cccc(OCc5ccc(C(F)(F)F)cc5F)n4)cc3)n(C[C@@H]3CCOC3)c2c1` [Example 36, (S)-2-(4-(6-((2-fluoro-4-(trifluoromethyl)benzyl)oxy)pyridin-2-yl)benzyl)-1-((tetrahydrofuran-3-yl)methyl)-1H-benzo[d]imidazole-6-carboxylic acid], for which the midpoint of the response, the EC50, lay at 2090 pM.

The molecule `CCCn1cnnc1Cn1c(Cc2ccc(-c3cccc(OCc4ccc(Cl)cc4F)n3)c(Cl)c2)nc2ccc(C(=O)O)cc21` [Example 26, 2-(3-chloro-4-(6-((4-chloro-2-fluorobenzyl)oxy)pyridin-2-yl)benzyl)-1-((4-propyl-4H-1,2,4-triazol-3-yl)methyl)-1H-benzo[d]imidazole-6-carboxylic acid] registered an EC50 of 775 pM. Against the preceding molecule, the EC50 is about 2.7-fold lower.

For the molecule `CCCn1cnnc1Cn1c(Cc2ccc(-c3cccc(OCc4ccc(Cl)cc4F)n3)c(F)c2)nc2ccc(C(=O)O)cc21` [Example 27, 2-(4-(6-((4-chloro-2-fluorobenzyl)oxy)pyridin-2-yl)-3-fluorobenzyl)-1-((4-propyl-4H-1,2,4-triazol-3-yl)methyl)-1H-benzo[d]imidazole-6-carboxylic acid], the midpoint of the response, the EC50, lay at 130 pM. As for `O=C(O)c1ccc2nc(Cc3ccc(-c4cccc(OCc5ccc(Cl)cc5F)n4)cc3)n(C[C@@H]3CCCO3)c2c1` [Example 12, (S)-2-(4-(6-((4-chloro-2-fluorobenzyl)oxy)pyridin-2-yl)benzyl)-1-((tetrahydrofuran-2-yl)methyl)-1H-benzo[d]imidazole-6-carboxylic acid], a half-maximal effect (EC50) was put at 70.6 pM.

In turn, `O=C(O)c1ccc2nc(Oc3ccc(-c4cccc(OCc5ccc(Cl)cc5F)n4)cc3Cl)n(C[C@@H]3CCO3)c2c1` [Example 18, (S)-2-(2-chloro-4-(6-((4-chloro-2-fluorobenzyl)oxy)pyridin-2-yl)phenoxy)-1-(oxetan-2-ylmethyl)-1H-benzo[d]imidazol-6-carboxylic acid] yielded an EC50 of 438 pM. Molecule `O=C(O)c1ccc2nc(Cc3ccc(-c4cccc(OCc5ccc(C(F)(F)F)cc5F)n4)cc3)n(C[C@@H]3CCO3)c2c1` [Example 16, (S)-2-(4-(6-((2-fluoro-4-(trifluoromethyl)benzyl)oxy)pyridin-2-yl)benzyl)-1-(oxetan-2-ylmethyl)-1H-benzo[d]imidazole-6-carboxylic acid] returned an EC50 greater than 80000 pM.

The molecule `CCCn1cnnc1Cn1c(Cc2ccc(-c3cccc(OCc4ccc(Cl)cc4F)n3)cc2)nc2ccc(C(=O)O)cc21` [Example 24, 2-(4-(6-((4-chloro-2-fluorobenzyl)oxy)pyridin-2-yl)benzyl)-1-((4-propyl-4H-1,2,4-triazol-3-yl)methyl)-1H-benzo[d]imidazole-6-carboxylic acid] displayed an EC50 of 167 pM. This lies in the sub-nanomolar range.

The molecule `O=C(O)c1ccc2nc(Cc3ccc(-c4cccc(OCc5ccc(Cl)cc5F)n4)cc3)n(C[C@H]3CCOC3)c2c1` [Example 33, (R)-2-(4-(6-((4-chloro-2-fluorobenzyl)oxy)pyridin-2-yl)benzyl)-1-((tetrahydrofuran-3-yl)methyl)-1H-benzo[d]imidazole-6-carboxylic acid] registered an EC50 of 365 pM.

Regarding `CCn1cncc1Cn1c(Oc2ccc(-c3cccc(OCc4ccc(C#N)cc4F)n3)cc2)nc2ccc(C(=O)O)cc21` [Example 5, 2-(4-(6-((4-cyano-2-fluorobenzyl)oxy)pyridin-2-yl)phenoxy)-1-((1-ethyl-1H-imidazol-5-yl)methyl)-1H-benzo[d]imidazole-6-carboxylic acid], a half-maximal effect (EC50) was put at 16 pM. Consider `O=C(O)c1ccc2nc(Oc3ccc(-c4cccc(OCc5ccc(Cl)cc5F)n4)cc3F)n(C[C@@H]3CCO3)c2c1` [Example 17, (S)-2-(4-(6-((4-chloro-2-fluorobenzyl)oxy)pyridin-2-yl)-2-fluorophenoxy)-1-(oxetan-2-ylmethyl)-1H-benzo[d]imidazole-6-carboxylic acid], for which the concentration giving a half-maximal response (EC50) came out at 357 pM.

(Values after patent US20230203021A1, “GLP-1 RECEPTOR AGONIST, PHARMACEUTICAL COMPOSITION COMPRISING SAME, AND METHOD FOR PREPARING SAME” (LG CHEM, LTD., priority 2020, published 2023).)
